{"source": "patent US11180523B2", "about": "“Design, synthesis and use of synthetic nucleotides comprising charge mass tags” (QuantuMDx Group Limited, priority 2016, dated 2021)", "key": {"[1]": {"assay": "Photocleavage by irradiation with a mercury lamp, followed by LCMS", "format": "physicochemical", "conditions": "methanol and water, approximately 250 nm", "description": "For illustrative purpose, initial testing of 3-(hydroxymethyl)naphthalen-2-ol derivative was carried out. The molecule was dissolved in a mixture of methanol and water, and was then irradiated for 90 min with light from a mercury lamp, which emits light with a wavelength of approximately 250 nm. […] After a further 90 min, there was approximately 20% starting material remaining.\nIn the experiments illustrated in FIG. 2, the molecule was dissolved in a mixture of methanol and water, and was then irradiated for 90 min with light from a mercury lamp, which emits light with a wavelength of approximately 250 nm. […] After a further 90 min, there was approximately 20% starting material remaining. […] The peak at 5 mins may be due to the diol being released."}, "[2]": {"tested_on": "DNA polymerase", "conditions": "single base incorporation; overnight, ambient temperature; FIG. 4", "protocol": "Sequencing reactions performed on bulk Si/SiO2 surfaces using both 3′ and 5′ surface tethered 30mer DNA, immobilised onto APDMES/PDC modified Si/SiO2 surface in the typical 4×4 array format. Here, Cy3 labelled dCTP was selectively incorporated to a hybridised primer using the covalently bound 30mer probe as a template. The reaction mix was spread over the silicon surface and incubated overnight in a dark humid chamber at ambient temperature. The silicon was then rinsed in 1× Thermopol buffer and dried using a nitrogen line. Fluorescence was visualised using an Olympus BX60 and imaged using Axio vision camera and Axiovision 3.1 software.\nIt should be noted that each spot would contain a number of DNA strands where the primer extension has taken place and therefore the florescence observed is due to several Cy3 dCTP's not just one base."}, "[3]": {"tested_on": "DNA polymerase", "assay": "Real-time primer extension analysis (Rotorgene Q, SYBR Safe) with melt analysis", "format": "biochemical", "conditions": "single SC-TTP incorporation, compared with standard dNTPs; FIG. 3A", "from_the_text": "As specified the linker chain can play an important role, at least in some embodiments, in enabling the nucleotide to remain a polymerase substrate, as such any modified nucleotides have to be shown to be biologically active. In order to exemplify this and as an example of certain embodiments, a polymerase reaction mix may be used for real-time primer extension analysis with Rotor Template, which requires the incorporation of a single SC-TTP nucleotide followed by a sequence of 44 dCTP, dGTP, dATP nucleotides.\nPrimer extension reactions were monitored using the Rotorgene Q Real-time thermocycler, this allows primer extension to be monitored fluorescently using a dsDNA intercalator (SYBR Safe) with secondary melt analysis to provide further information on product composition. This method can be used with an oligonucleotide primer/template pair designed to allow complete extension of the primer with the incorporation of a single SC-TTP nucleotide. Initially, the experiment was be conducted with a 40° C. incubation and then repeated with a 65° C. incubation (optimum synthesis temperature for most commercial DNA Polymerases). Control reactions with standard dNTPs (positive control) and no dNTPs (negative control) were included, alongside a control(s) for mis-incorporation."}, "[4]": {"tested_on": "DNA polymerase", "assay": "Primer extension reaction analysed by PAGE gel", "conditions": "incubated at 40° C.; compared with the positive control reaction", "protocol": "Competitor oligos, complementary to the templates were also designed to aid gel analysis of a single stranded product. Primer extension reactions were conducted using the following reaction mix:\nFollowing incubated at 40° C. in a hot block reactions were terminated by the addition of a ‘stop buffer’ containing chelators to inhibit polymerase activity in addition to formamide and competitor oligo to encourage denaturation of the double stranded DNA duplex for electrophoresis."}}, "data": [{"molecule": "COC(COCc1ccccc1)NC(=O)OCc1cc2ccccc2cc1O", "note": "(centres unmarked) [(3-Hydroxynaphthalen-2-yl)methyl (2-(benzyloxy)-1-methoxyethyl)carbamate]", "values": [{"measurement": "starting material remaining (LCMS)", "setting": "[1]; after a further 90 min irradiation", "value": "approximately 20%"}, {"measurement": "consumption of the starting material (LCMS)", "setting": "[1]; irradiated for 90 min", "value": 50, "unit": "%"}]}, {"molecule": "CCN1/C(=C/C=C/C2=[N+](CCCCCC(=O)NCC#Cc3cn(C4CC(O)C(COP(=O)([O-])OP(=O)([O-])OP(=O)([O-])[O-])O4)c(=O)nc3N)c3cc(S(=O)(=O)O)ccc3C2(C)C)C(C)(C)c2ccc(S(=O)(=O)[O-])cc21.[Li+].[Li+].[Li+].[Li+]", "note": "(centres unmarked) [Cy3 labelled dCTP]", "values": [{"measurement": "fluorescence of printed array post-sequencing and wash steps", "setting": "[2]", "value": "very weak fluorescence"}]}, {"molecule": "[N-]=[N+]=NC(COc1cccc(C(=O)NCCNC(=O)c2cc(C(=O)O)cc(C(=O)O)c2)c1)OCCOCC(=O)NCC#Cc1cn([C@H]2C[C@H](O)[C@@H](COP(=O)(O)OP(=O)(O)OP(=O)(O)O)O2)c(=O)[nH]c1=O", "note": "(some centres unmarked) [SC-TTP, Penta-Triethylammonium Cleavable SCTTP]", "values": [{"measurement": "maximum fluorescence intensity associated with incorporation (primer extension)", "setting": "[3]", "value": "slightly reduced"}, {"measurement": "band shift on gel after primer extension", "setting": "[4]", "value": "larger shift"}]}]}
